In patent US11590129B2, “Combination therapy with an antitumor alkaloid” (PHARMA MAR, S.A., priority 2010, dated 2023):

Experiments:
[1] = test system: PC-3 human prostate cancer cell line; assay: cells; conditions: Homo sapiens, PC-3, 72 h
How it was run: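 Cells seeded at 5,000/well, grown 24 h drug-free, then exposed to vehicle or test compounds for 72 h. Viability by MTT reduction (8 h, 37 °C), formazan dissolved in DMSO. Values given as percentage of control cell growth.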

[2] = test system: A673 human rhabdomyosarcoma cell line; assay: cells
How it was run: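 A673 cells seeded at 5,000 per well, grown 24 h drug-free, then exposed to compounds for 72 h. Viability by MTT reduction (8 h, 37 °C), formazan dissolved in DMSO. Results expressed as percentage of control cell growth.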

[3] = test system: RAMOS human lymphoma cell line; assay: cells; conditions: Homo sapiens, Ramos, 72 h
Experimental: (§1) Briefly, cells were seeded in 96 well microtiter plates at a density of 50000 cells per well in 150 μL of culture medium and incubated for 4-6 hours in drug-free medium before treatment with vehicle alone or test compounds for 72 hours.
(§2) After incubation, the cytotoxic effect was evaluated using a MTT reduction assay. 50 μL of MTT solution (1 mg/mL) were added to the wells and incubated for 15-17 hours at 37° C. until formazan crystals were formed. After gently removing the culture medium, DMSO was added to dissolve the insoluble purple formazan product into a colored solution. […] Results were expressed as percentage of control cell growth. The EC50 values (half-maximal effective concentration) used for the combination studies were calculated using Prism v5.02 software (GraphPad). EC50 was expressed as molar concentration and represented the mean of at least three independent assays.
(§3) Using these starting concentrations, constant serial dilutions were performed to generate the concentration-response curves for each set of drugs, alone and in combination.
(§4) Based on this equation, the term “combination index” (CI) is used as a quantitative measure of the degree of drug interactions. […] CI values were calculated by solving the equation for different values of fa (i.e., for different degrees of cell groth inhibition).
(§5) Data were analyzed using CalcuSyn software (Biosoft, Cambridge, UK). For statistical analysis and graphs Prism software (GraphPad, San Diego, USA) was used. All the results represent the mean of at least three independent experiments.
(§6) Additional serial dilutions were prepared in serum-free culture medium to achieve a final 4× concentration. Aliquots of 50 μL of each diluted compound were added per well.
(§7) In the second set of assays, concentration-response curves for the agents tested, both alone and in two-drug combination, were performed.

[4] = test system: U-937 human lymphoma cell line; assay: cells; conditions: Homo sapiens, U-937, 72 h
Experimental: as §1, §2, §3, §4, §5, §6, §7

SW1990 tumors = assay: Human pancreatic tumor xenografts (SW1990) in athymic nude mice, tumor volume % T/C; format: in vivo
Experimental: Female athymic nude mice (Harlan Laboratories Models, S.L. (Barcelona, Spain) were utilized for all experiments. Animals were housed in individually ventilated cages, up to ten per cage in a 12-hour light-dark cycle at 21-23° C. and 40-60% humidity. The mice were allowed free access to irradiated standard rodent diet and sterilized water. Animals were acclimated for at least 5 days prior to tumor implantation with a tumor cell suspension.
Each animal was subcutaneously implanted on the right flank, using 26G needle and a 1 cc syringe, with 5×10^6 SW1990 cells, from in vitro passage 12, in 0.05 mL suspension of 50% Matrigel and 50% serum free medium, without antibiotics.
PM01183 was provided in the form of vials of lyophilized PM01183 cake which was reconstituted with water for infusion to a concentration of 0.2 mg/mL. The PM01183 stock solution was further diluted in 5% glucose solution for injection to the dosing formulation concentrations.
Dose level groups were administered either as single agents or in combination.
Comparison of the median tumor volume in the treatment groups (T) to the median tumor volume in the control group (T/C×100%) was used for evaluation of the antitumor efficacy.

[5] = test system: HGC-27 human gastric carcinoma cell line; assay: cells
[6] = test system: HT-29 human colon adenocarcinoma cell line; assay: cells
How it was run: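 HT-29 cells (5,000/well) were attached for 24 h, then exposed to vehicle or compounds for 72 h. Viability was read by MTT reduction, with 8 h MTT at 37° C and formazan dissolved in DMSO. Values are % of control cell growth.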

[7] = test system: IGROV-1 human ovarian adenocarcinoma cell line; assay: cells
[8] = test system: PANC-1 human pancreatic carcinoma cell line; assay: cells; conditions: Homo sapiens, PANC-1, 72 h
How it was run: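 Cells seeded at 5,000/well, left 24 h drug-free, then exposed to test compounds for 72 h. Viability read by MTT reduction (MTT added for 8 h at 37° C, formazan dissolved in DMSO).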

[9] = test system: A549 human lung carcinoma cell line; assay: MTT cytotoxicity assay in A549 cells: IC50 of single agents and combinations with PM01183; format: cell-based; conditions: Homo sapiens; A549, 72 hours drug exposure, MTT; read-out: IC50
How it was run: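 A549 cells seeded at 5,000 per well, grown 24 h drug-free, then exposed to vehicle or compounds for 72 h, either singly or combined with PM01183. Combination responses plotted against dose ratio relative to an additivity line.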

[10] = test system: HepG2 human hepatocellular liver carcinoma cell line; assay: MTT cytotoxicity assay in HepG2 cells: IC50 of single agents and combinations with PM01183; format: cell-based; conditions: Homo sapiens; HepG2, 72 hours drug exposure, MTT; read-out: IC50
[11] = test system: U87-MG human glioblastoma cell line; assay: cells
[12] = test system: MDA-MB-231 human breast adenocarcinoma cell line; assay: cells; conditions: Homo sapiens, MDA-MB-231, 72 h
[13] = test system: RXF-393 human kidney carcinoma cell line; assay: cells
[14] = test system: SK-MEL-2 human melanoma cell line; assay: cells; conditions: Homo sapiens, SK-MEL-2, 72 h
How it was run: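 SK-MEL-2 melanoma cells (5,000/well) grown 24 h drug-free, then exposed 72 h to vehicle or test compounds. Viability by MTT reduction (8 h, 37 °C), formazan dissolved in DMSO; results expressed as percentage of control cell growth.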

[15] = test system: MOLT-4 human leukemia cell line; assay: cells
Experimental: as §6
(§8) JURKAT and MOLT-4 were the human leukemia cell lines selected for this assay, which were obtained from the American Type Culture Collection (ATCC).
as §1, §2
(§9) b. In a second set of experiments, concentration-response curves for the agents tested, both alone and in two-drug combination, were performed, using the same methodology described in the previous paragraph.
as §3, §4, §5

[16] = test system: JURKAT human leukemia cell line; assay: cells
Experimental: as §6, §8, §1, §2, §9, §3, §4, §5

[17] = gemcitabine 45.0 mg/kg iv days 0,7,14
[18] = gemcitabine 90.0 mg/kg iv days 0,7,14
[19] = gemcitabine 135.0 mg/kg iv days 0,7,14
[20] = gemcitabine 180.0 mg/kg iv days 0,7,14

Molecule: Nc1ccn([C@@H]2O[C@H](CO)[C@@H](O)C2(F)F)c(=O)n1 [Gemcitabine, gemcitabine]
- IC50 [1]: 400 nM
- IC50 ([2]; Homo sapiens, A673, 72 h): 0.434 nM
- EC50 [3]: 25.1 nM
- EC50 [4]: 32.7 nM
- % T/C on day 0 (SW1990 tumors; [17]): 102.3%
- % T/C on day 3 (SW1990 tumors; [17]): 85.5%
- % T/C on day 6 (SW1990 tumors; [17]): 70.3%
- % T/C on day 8 (SW1990 tumors; [17]): 70.5%
- % T/C on day 10 (SW1990 tumors; [17]): 63.3%
- % T/C on day 13 (SW1990 tumors; [17]): 64.8%
- % T/C on day 15 (SW1990 tumors; [17]): 63.1%
- % T/C on day 17 (SW1990 tumors; [17]): 58.5%
- % T/C on day 20 (SW1990 tumors; [17]): 58.7%
- % T/C on day 22 (SW1990 tumors; [17]): 57.3%
- % T/C on day 24 (SW1990 tumors; [17]): 65.2%
- % T/C on day 28 (SW1990 tumors; [17]): 59.3%
- % T/C on day 0 (SW1990 tumors; [18]): 103.8%
- % T/C on day 3 (SW1990 tumors; [18]): 70.0%
- % T/C on day 6 (SW1990 tumors; [18]): 73.8%
- % T/C on day 8 (SW1990 tumors; [18]): 63.3%
- % T/C on day 10 (SW1990 tumors; [18]): 55.6%
- % T/C on day 13 (SW1990 tumors; [18]): 54.8%
- % T/C on day 15 (SW1990 tumors; [18]): 49.9%
- % T/C on day 20 (SW1990 tumors; [18]): 47.6%
- % T/C on day 22 (SW1990 tumors; [18]): 47.0%
- % T/C on day 24 (SW1990 tumors; [18]): 45.9%
- % T/C on day 28 (SW1990 tumors; [18]): 49.2%
- % T/C on day 0 (SW1990 tumors; [19]): 102.3%
- % T/C on day 3 (SW1990 tumors; [19]): 78.3%
- % T/C on day 6 (SW1990 tumors; [19]): 71.9%
- % T/C on day 8 (SW1990 tumors; [19]): 63.7%
- % T/C on day 10 (SW1990 tumors; [19]): 55.4%
- % T/C on day 13 (SW1990 tumors; [19]): 52.7%
- % T/C on day 15 (SW1990 tumors; [19]): 54.8%
- % T/C on day 17 (SW1990 tumors; [19]): 51.2%
- % T/C on day 20 (SW1990 tumors; [19]): 49.5%
- % T/C on day 22 (SW1990 tumors; [19]): 48.7%
- % T/C on day 24 (SW1990 tumors; [19]): 49.8%
- % T/C on day 28 (SW1990 tumors; [19]): 49.5%
- % T/C on day 0 (SW1990 tumors; [20]): 102.2%
- % T/C on day 3 (SW1990 tumors; [20]): 84.1%
- % T/C on day 6 (SW1990 tumors; [20]): 73.9%
- % T/C on day 8 (SW1990 tumors; [20]): 66.1%
- % T/C on day 10 (SW1990 tumors; [20]): 60.9%
- % T/C on day 13 (SW1990 tumors; [20]): 59.4%
- % T/C on day 15 (SW1990 tumors; [20]): 58.5%
- % T/C on day 17 (SW1990 tumors; [20]): 52.1%
- % T/C on day 20 (SW1990 tumors; [20]): 49.1%
- % T/C on day 22 (SW1990 tumors; [20]): 48.6%
- % T/C on day 24 (SW1990 tumors; [20]): 46.9%
- % T/C on day 28 (SW1990 tumors; [20]): 39.3%
- IC50 ([5]; Homo sapiens, HGC-27, 72 h): 0.534 nM
- IC50 ([6]; Homo sapiens, HT-29, 72 h): 400 nM
- IC50 ([7]; Homo sapiens, IGROV-1, 72 h): 6.34 nM
- IC50 [8]: 1000 nM
- IC50 [9]: 0.28 nM
- IC50 [10]: 5.34 nM
- IC50 ([11]; Homo sapiens, U-87 MG, 72 h): 450 nM
- IC50 [12]: 8.5 nM
- IC50 ([13]; Homo sapiens, RXF 393, 72 h): 500 nM

Molecule: COc1c(C)cc2c(c1O)[C@@H]1[C@@H]3Cc4c(OC(C)=O)c(C)c5c(c4[C@H](CNC(=O)/C=C/c4cccc(C(F)(F)F)c4)N3[C@@H](O)[C@H](C2)N1C)OCO5 [PM00104]
- IC50 [1]: 7.1 nM
- IC50 ([2]; Homo sapiens, A673, 72 h): 3 nM
- IC50 [14]: 2 nM
- EC50 [3]: 4.35 nM
- EC50 [4]: 4.5 nM
- IC50 ([5]; Homo sapiens, HGC-27, 72 h): 3.2 nM
- IC50 ([7]; Homo sapiens, IGROV-1, 72 h): 3.3 nM
- IC50 [8]: 7.89 nM
- EC50 ([15]; Homo sapiens, MOLT-4, 72 h): 1.55 nM
- EC50 ([16]; Homo sapiens, Jurkat, 72 h): 4.83 nM
- IC50 [9]: 7 nM
- IC50 [10]: 3 nM
- IC50 [12]: 1 nM
- IC50 ([13]; Homo sapiens, RXF 393, 72 h): 5.4 nM

Molecule: aplidine
- IC50 ([2]; A673, 72 hours drug exposure, MTT): 2.16 nM
- IC50 ([5]; HGC-27, 72 hours drug exposure, MTT): 9 nM
- IC50 ([6]; HT-29, 72 hours drug exposure, MTT): 1.76 nM
- IC50 ([7]; IGROV-1, 72 hours drug exposure, MTT): 1.5 nM
- EC50 ([15]; MOLT-4, 72 hours exposure, MTT): 1.27 nM
- EC50 ([16]; JURKAT, 72 hours exposure, MTT): 13.8 nM
- IC50 ([11]; U87-MG, 72 hours drug exposure, MTT): 3.8 nM
- IC50 ([13]; RXF-393, 72 hours drug exposure, MTT): 1.5 nM
